Test results from patent publication EP4729530A1, “NOVEL PEPTIDE AND USE THEREOF” (Gemvax & Kael Co., Ltd., priority 2023, dated 2024).

Experiments:
[1] = test system: 4R Tau^P301L-BiFC mouse; experiment: Novel object recognition experiment in 4R tauopathy mouse model; assay type: in vivo; settings: GV2002 2 mg/kg subcutaneous, 3 times/week, 21 weeks
Protocol: (§1) In vivo experiments were performed on the 4R tauopathy mouse groups shown in FIG. 4 according to the schedule shown in FIG. 5 and the outline in Table 3 below.
Novel object recognition experiments were conducted on a 4R tauopathy mouse model administered GV2002 for five months, from 7.5 to 12.5 months of age, to evaluate the efficacy of GV2002 in alleviating impairment in cognitive ability.
Mice that underwent the experiment from days 1 to 6 according to the experimental method in Example 4-2 were subjected to a novel object recognition experiment on days 7 and 8. […] On day 8, one of the two objects was replaced with a novel object, and mice were placed in the enclosure and observed for 10 minutes, during which the time spent exploring the novel object was measured. Prior to the experiments on days 7 and 8, mice were allowed one hour to acclimate to the testing environment. The illumination level was maintained at a constant level throughout the experiment. The recorded data were analyzed using two-way ANOVA with Sidak's multiple comparisons test.

[2] = test system: 4R Tau^P301L-BiFC mouse; experiment: Rota-rod experiment in 4R tauopathy mouse model; assay type: in vivo; settings: 3 times/week, 21 weeks
Protocol: as §1
Rota-rod experiments were conducted on mice with 4R tauopathy treated with GV2002 for five months, from 7.5 to 12.5 months of age, to evaluate the efficacy of GV2002 in alleviating impairment in motor ability.
On day 1, acclimation training was conducted, and on day 2, behavioral testing was conducted. Prior to acclimation training and behavioral testing, mice were allowed to acclimate to the testing environment for one hour. During acclimation training, mice walked on a […] at a speed ranging from 5 to 25 rpm for 300 seconds, and any mouse that lost its balance and fell to the floor was allowed to walk again. […] The measured values were analyzed using a two-way ANOVA with Dunnett's multiple comparisons test.

[3] = test system: 4R Tau^P301L-BiFC mouse; experiment: Open field experiment in 4R tauopathy mouse model; assay type: in vivo; settings: GV2002 2 mg/kg subcutaneous, 3 times/week, 21 weeks; 10 minutes open field
Protocol: as §1
Open field experiments were conducted on mice with 4R tauopathy administered GV2002 for five months, from 7.5 to 12.5 months of age, to evaluate the efficacy of GV2002 in alleviating impairment in motor ability.
To prevent changes in mouse behavioral responses, handling was performed for five days (days 1 to 5) prior to the experiment. Each handling session lasted two minutes. On day 6, mice were placed in a 40 cm × 40 cm enclosure and subjected to an open field experiment for 10 minutes. Prior to the experiment, mice were allowed one hour to acclimate to the testing environment. During the open field experiment, movement trajectories, distance traveled, and movement speed of the mice were recorded. The illumination level was maintained at a constant level throughout the experiment. The recorded values were analyzed using one-way ANOVA with Dunnett's multiple comparisons test.

[4] = test system: AT8 (phospho-Tau S202/T205); experiment: Immunofluorescence staining of brain tissue (AT8) for tau hyperphosphorylation; assay type: in vivo, mouse; settings: GV2002 2 mg/kg subcutaneous, 3 times/week, 21 weeks
Protocol: as §1
The brains of a 4R tauopathy mouse model administered GV2002 for 5 months, from 7.5 to 12.5 months of age, were removed and analyzed using immunofluorescence staining.
For brain tissue sampling, the 4R tauopathy mouse models were anesthetized, and saline was perfused intracardially, after which the blood was removed using a perfusion pump device. Then, the brains were removed and weighed. The brains to be used for tissue staining experiments were fixed in a 4% PFA solution for 24 hours. The fixed brain tissue was immersed in a 20% sucrose solution for 24 hours and then in a 30% sucrose solution for 48 hours for dehydration. The dehydrated brain tissue was removed, excess moisture was eliminated, and the brain tissue and a cryoembedding agent (OCT compound) were placed together in a mold to protect the tissue, after which the brain tissue was rapidly frozen using dry ice. The frozen brain tissue mold was stored in a -80 °C freezer. Afterwards, the brain tissue was sectioned into 30-µm-thick sections using a cryostat and stored in a 0.05% sodium azide solution.
For immunofluorescence staining of brain tissue, 30-µm-thick frozen brain sections were selected according to brain region, washed three times with PBS for 10 minutes each, fixed in 3.7% formaldehyde for 5 minutes, and washed three times with PBS for 10 minutes each. The brain tissue samples were permeabilized in 0.3% PBS-T solution, and then blocked in 5% BSA solution in PBS for 1 hour. The brain tissues were incubated overnight in 3% BSA and 0.1% Tween-20 solution in PBS containing AT8 (phospho-Tau S202/T205) antibody diluted at a ratio of 1:200, which targets tau hyperphosphorylation. The brain tissues were washed three times with PBS for 10 minutes each. The brain tissues were then incubated for 1 hour at room temperature in 3% BSA and 0.1% Tween-20 solution in PBS containing secondary antibody diluted 1:500. The brain tissues were immersed in PBS solution and washed once for 10 minutes. […] The brain tissues were immersed in PBS solution and washed three times for 10 minutes each, and fluorescence imaging was performed using a slide scanner.
To obtain fluorescence images of the stained brain tissue, brain tissue slides were scanned using a Zeiss Axio Scan (Zeiss, Oberkochen, Germany). AT8 fluorescence levels in each brain tissue region obtained through fluorescence imaging, i.e., the somatosensory cortex, hippocampus (CA1), motor cortex, and substantia nigra, were calculated using ImageJ software (NIH). The calculated values were analyzed using one-way ANOVA with Dunnett's multiple comparisons test.

[5] = Pharmacokinetic profile in rats (intravenous and subcutaneous administration); assay type: in vivo; settings: Sprague Dawley rats
Protocol: To determine the pharmacokinetic profile of GV2002 prepared in Example 1, plasma was collected from rats administered with GV2002. The collected plasma was pretreated by protein precipitation using nine times the volume of methanol containing 0.1% formic acid, followed by centrifugation at 16,100 g for 10 minutes.
(§2) GV2002 was administered intravenously (IV) to three Sprague Dawley rats per group. Blood samples were collected at 0.033, 0.083, 0.17, 0.25, 0.5, 1, and 2 hours after administration. The collected blood samples were centrifuged to separate plasma, pretreated, and analyzed using LC-MS. Pharmacokinetic parameters were calculated using the non-compartmental analysis model of the Phoenix WinNonlin (Pharsight, ver. 6.4, USA) program.
as §2, with “subcutaneously (SC)” for “intravenously (IV)”, “of” for “of the”, “(Pharsight” for “(Pharsight,”, “USA).” for “USA) program.”

Ac-EARPALLTSRLRFIPK-NH2 [GV2002]
time spent exploring the novel object compared to the time spent exploring the learned object [1]: significant increase
motor ability (Rota-rod) compared to the reference compound LMTM-administered group ([2]; GV2002 2 mg/kg subcutaneous vs LMTM 15 mg/kg oral): relatively enhanced motor ability
motor ability (Rota-rod, time until fall) compared to the vehicle-administered group ([2]; GV2002 2 mg/kg subcutaneous, 7.5 to 12.5 months of age): significantly improved motor ability
movement speed in the open space compared to the vehicle-administered group [3]: significantly higher
total distance traveled in the open space compared to the vehicle-administered group [3]: significantly higher
AT8 fluorescence intensity, reduction compared to the vehicle-administered group ([4]; hippocampus region): 62%
AT8 fluorescence intensity, reduction compared to the vehicle-administered group ([4]; motor cortex region): 65%
AT8 fluorescence intensity, reduction compared to the vehicle-administered group ([4]; somatosensory cortex region): 57%
AT8 fluorescence intensity, reduction compared to the vehicle-administered group ([4]; substantia nigra region): 69%
AUC(0-t) ([5]; rat, plasma, intravenous (IV), non-compartmental analysis): 438 ng·h/mL
in vivo persistence after subcutaneous administration ([5]; subcutaneous (SC)): remains in a stable state in vivo without degradation and persists for a long period of time
